# Measurements published in article PMC2987774, “Creation of a novel peptide with enhanced nuclear localization in prostate and pancreatic cancer cell lines” (BMC Biotechnology, 2010).
# Values joined by “and” are separate entries in the source; they are usually repeats but may differ in a detail not shown here. Equal entries are not always repeated. Where two headings read alike, the source gives them in different places. Marks after values point to notes of the source that are not given here.
# Experiments:
# DU-145 cells [1] = conditions: for % Inhibition of uptake: 300 nM, 4 hr; for uptake of Glu-Oct6-FITC on coincubation with carboxydansyl peptide: 300 nM dansyl peptide + 300 nM Glu-Oct6-FITC, 1 hr, BD LSR II (Figure 2D)
# Description: Peptides were added to subconfluent cultures of cells at times, temperatures, and concentrations indicated in experiments. Concentrations ranging from 0 to 1000 nM were assayed. Fluorescence was normalized using calibration beads (Becton-Dickinson; BD). Cells were analyzed in the presence of 5 mM 7-AAD (eBioscience, San Digeo CA) to gate on live events. Fluorescence was quantified, after cells were harvested, using a BD FACScan flow cytometer. At least 10,000 events were acquired using CellQuest Pro software and an Apple Macintosh G4 dual coprocessor computer running OS X 10.3.9. Fluorescence detectors on the instrument were standardized prior to each acquisition run, so that fluorescence intensities from different days could be compared. Because the FACScan employs logarithmic amplifiers on the fluorescence detectors, the more accurate parameter with which to compare fluorescence intensities for different samples is the geometric mean fluorescence intensity (geometric MFI). For the studies examining uptake of carboxyfluorescein peptides plus carboxydansyl peptides, fluorescence was quantified on a BD LSR II flow cytometer.
# DU-145 and LNCaP cells [2] = assay: Nuclear colocalization by imaging flow cytometry (DRAQ5), statement pooled over two lines; assay type: cell-based; conditions: 250 nM, 4 hours; fixed cells, IDEAS software
# Description: Figure 4 Imaging studies. Figure 4A: DU-145 and LNCaP cells were incubated with 250 nM Glu-Ala-FITC or Glu-Oct6-FITC for 4 hours, counterstained with […] DRAQ 5, then fixed in paraformaldehyde and analyzed by imaging flow cytometry on an Amnis Imaging Cytometer. IDEAS software (Amnis) was used to generate and colorize the images. Across each row of images, one is viewing the same cell under different fluorescence excitations. […] Figure 4B: Live cell imaging of Glu-Oct6-FITC by DU-145 cells. 500 nM Glu-Oct6-FITC was incubated with DU-145 cells overnight (necessary for imaging purposes). Cells were washed with phenol red-free buffer, counter-stained with DRAQ5 at […], and then examined under a Zeiss Axiovert 200 inverted phase contrast microscope with epifluorescence. The merged image confirms the presence of Glu-Oct6-FITC in nuclei. Merged images with and without Nomarski interference are shown. Figure 4C and D: DU-145 cells incubated with Glu-FITC and Oct6-FITC, as described for Figure 3B. Note the absence of FITC fluorescence in nuclei.
# (§1) Concentrations ranging from 0 to 1000 nM were assayed. Fluorescence was normalized using calibration beads (Becton-Dickinson; BD). […] Four to five thousand events were collected for analysis.
# DU-145 and LNCaP cells [3] = assay: Live cell imaging, inverted epifluorescence microscopy with DRAQ5; assay type: cell-based; conditions: 500 nM, 24 hrs incubation
# Description: A Zeiss Axiovert 200 inverted phase-contrast microscope outfitted with epifluorescence was used for live imaging studies. Subconfluent cultures of cells in 12-well plates were incubated with 500 nM peptides as indicated. DRAQ5 (Axxora; […] final concentration) was added for the last hour of incubation, then the cells were washed twice with warm phenol red-free buffer. Cells were examined in phenol red-free buffer plus 10% serum. Images were acquired and analyzed using Zeiss Axiovision software.
# DU-145 cells [4] = assay: Apoptosis, FITC-annexin V plus PI flow cytometry; assay type: cell-based; conditions: 48 hr, mean of 3 experiments
# Description: (§2) DU-145 and PANC-1 cells were incubated with PNAs Glu-Oct6-13410a or 13410a (no CPP attached) at 0, 300, 600, or 1000 nM for 48 hr. Cells were harvested, then stained with FITC-annexin V (Abcam; Cambridge, MA) and counterstained with propidium iodide (Sigma, St.Louis, MO). Cells were analyzed on a BD FACScan for fluorescence in the FL1 and FL3 channels; CellQuest Pro software was used to quantify fluorescence and determine the extent of apoptosis.
# PANC-1 cells [5] = assay: Apoptosis, FITC-annexin V plus PI flow cytometry; assay type: cell-based; conditions: 48 hr, mean of 3 experiments
# Description: as §2
# DU-145 cells [6] = assay: Nuclear colocalization by imaging flow cytometry (DRAQ5, Amnis ImageStream); assay type: cell-based; conditions: 1000 nM, 18 hr; 4 to 5 thousand events
# Description: as §1
# PANC-1 cells [7] = assay: as above; assay type: cell-based; conditions: 1000 nM, 18 hr; 4 to 5 thousand events
# Description: as §1
substance,measurement,setting,value
EEEAAKKK-FITC [Glu-Lys-FITC],% Inhibition of uptake,DU-145 cells [1]; 0% NaN3 (reference),0%
same,% Inhibition of uptake,DU-145 cells [1]; 0.1% NaN3,0%
EEEAAGRKRKKRT-FITC [Glu-Oct6-FITC],distribution in the cytoplasm,DU-145 and LNCaP cells [2],approximately 50%
same,distribution in the nucleus,DU-145 and LNCaP cells [2],approximately 50%
same,accumulation in the nuclei,DU-145 and LNCaP cells [3],accumulated in the nuclei
same,% Inhibition of uptake,DU-145 cells [1]; 0% NaN3 (reference),0%
same,% Inhibition of uptake,DU-145 cells [1]; 0.1% NaN3,0%
same,% Inhibition of uptake,DU-145 cells [1]; 1.0% NaN3,24.8%
"GRKRKKRT-FITC [Oct6-FITC, reference compound]",accumulation in the nuclei,DU-145 and LNCaP cells [3],not
same,% Inhibition of uptake,DU-145 cells [1]; 0% NaN3 (reference),0%
same,% Inhibition of uptake,DU-145 cells [1]; 0.1% NaN3,29.8%
same,% Inhibition of uptake,DU-145 cells [1]; 1.0% NaN3,56.7%
FFFAAGRKRKKRT-dansyl [Phe-Oct6-Dansyl],uptake of Glu-Oct6-FITC on coincubation with carboxydansyl peptide,DU-145 cells [1],nearly unaltered uptake
EEEAAGRKRKKRT-TCCCGTAAATCCCTA [Glu-Oct6-13410a],% apop.,DU-145 cells [4]; 300 nM PNA,8.7%
same,% apop.,DU-145 cells [4]; 600 nM PNA,48% and 48.7* %
same,% apop.,DU-145 cells [4]; 1000 nM PNA,82.5* %
same,% apop.,PANC-1 cells [5]; 300 nM PNA,17.4%
same,% apop.,PANC-1 cells [5]; 600 nM PNA,69% and 69.6* %
same,% apop.,PANC-1 cells [5]; 1000 nM PNA,84.6* %
"EEEAAGRKRKKRT-TATGATCTCCTCCGT-K-FITC [Glu-Oct6-PNA-FITC, Glu-Oct6 at the N terminus, inert PNA …-lysyl-FITC at the C terminus]",mean % cyto. FITC,DU-145 cells [6],22.48%
same,mean % nuclear FITC,DU-145 cells [6],68.04%
same,mean cyto. FITC intensity,DU-145 cells [6],"76,943"
same,mean nuclear FITC intensity,DU-145 cells [6],"274,597"
same,mean % cyto. FITC,PANC-1 cells [7],21.8%
same,mean cyto. FITC intensity,PANC-1 cells [7],"68,465"
same,mean nuclear FITC intensity,PANC-1 cells [7],"322,794"
EEEAA-FITC [Glu-Ala-FITC],nuclei positive for DRAQ5 and FITC colocalization,DU-145 and LNCaP cells [2],~ 10%
same,accumulation in the nuclei,DU-145 and LNCaP cells [3],not
same,% Inhibition of uptake,DU-145 cells [1]; 0% NaN3 (reference),0%
same,% Inhibition of uptake,DU-145 cells [1]; 0.1% NaN3,0%
NNNAAGRKRKKRT-dansyl [Asn-Oct6-Dansyl],uptake of Glu-Oct6-FITC on coincubation with carboxydansyl peptide,DU-145 cells [1],nearly unaltered uptake
